“Also recorded” adds a separate entry of the source.
Experiments:
9 KB = tested on: 9 KB; parameters: method as in PMID 3598597; settings: cited from earlier work
[1] = tested on: human leukemia-derived HL60 cells; settings: cited from earlier work
[2] = biological target: T1, α-amylase from porcine pancreas type VI-B (Sus scrofa, UniProt P00690); assay: α-Amylase inhibition colorimetric assay (BPNPG7, amylase HR reagent); type: biochemical
T1 construct: α-amylase from porcine pancreas type VI-B; purchased Sigma-Aldrich; host or cells: porcine pancreas
T1 sequence (P00690 16-511): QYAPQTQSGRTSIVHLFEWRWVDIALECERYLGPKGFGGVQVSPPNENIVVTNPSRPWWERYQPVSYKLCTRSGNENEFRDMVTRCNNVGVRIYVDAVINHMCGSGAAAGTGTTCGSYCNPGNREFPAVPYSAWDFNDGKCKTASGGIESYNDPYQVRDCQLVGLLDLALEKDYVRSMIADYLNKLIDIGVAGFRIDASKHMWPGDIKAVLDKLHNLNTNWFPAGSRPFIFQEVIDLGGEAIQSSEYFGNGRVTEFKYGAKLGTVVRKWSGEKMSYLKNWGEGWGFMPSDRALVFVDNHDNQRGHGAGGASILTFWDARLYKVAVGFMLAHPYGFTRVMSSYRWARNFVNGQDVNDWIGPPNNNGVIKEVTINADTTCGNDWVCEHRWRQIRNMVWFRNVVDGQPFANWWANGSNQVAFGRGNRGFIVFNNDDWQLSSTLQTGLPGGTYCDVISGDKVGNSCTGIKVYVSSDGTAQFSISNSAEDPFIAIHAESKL

[3] = tested on: α-glucosidase from Saccharomyces cerevisiae; assay: α-Glucosidase inhibition colorimetric assay (PNPG); type: biochemical; settings: 0 to 200 μg/mL, n = 6
crown-gall = tested on: crown-gall; parameters: method as in PMID 3598597; settings: cited from earlier work
COX-1 = biological target: T2, COX-1 (Ovis aries, UniProt P05979); assay: COX inhibitor screening assay (EIA of prostaglandins), COX-1; type: biochemical
T2 construct: purchased Cayman Chemical 560131
T2 sequence (P05979 25-600): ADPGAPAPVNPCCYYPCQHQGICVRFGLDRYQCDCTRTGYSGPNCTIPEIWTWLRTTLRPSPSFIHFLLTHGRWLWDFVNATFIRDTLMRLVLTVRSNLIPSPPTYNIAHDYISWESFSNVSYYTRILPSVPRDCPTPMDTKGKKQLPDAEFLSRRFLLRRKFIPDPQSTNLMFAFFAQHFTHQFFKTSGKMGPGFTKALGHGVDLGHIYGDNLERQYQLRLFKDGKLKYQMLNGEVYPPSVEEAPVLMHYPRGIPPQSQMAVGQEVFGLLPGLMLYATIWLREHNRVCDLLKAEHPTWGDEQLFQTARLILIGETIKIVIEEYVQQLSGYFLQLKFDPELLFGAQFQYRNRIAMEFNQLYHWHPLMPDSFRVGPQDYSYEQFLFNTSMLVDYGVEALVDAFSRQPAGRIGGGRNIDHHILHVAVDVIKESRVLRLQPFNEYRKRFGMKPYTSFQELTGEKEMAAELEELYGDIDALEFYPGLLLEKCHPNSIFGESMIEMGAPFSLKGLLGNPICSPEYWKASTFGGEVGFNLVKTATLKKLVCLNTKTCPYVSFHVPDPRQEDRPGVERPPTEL
Method: (§1) The inhibition of COX-1 and -2 by 3-methoxypterostilbene was measured through the use of a three-day commercial assay kit. The assay relied on the quantification of the prostanoid product based on enzyme immunoassay (EIA), which uses a nonspecific antibody for prostaglandins (PGs). The constant concentration of the PG-AChE-tracer and the varying concentrations of the PGs available to bind to the antiserum is inversely proportional to the concentration of free PGs in the well. For this assay, 3-methoxypterostilbene was dissolved in DMSO over the concentration range of 1–250 μg/mL. Ibuprofen and etodolac, COX-2 preferential NSAIDs, were dissolved in DMSO and used as controls over the concentration range of 1–250 μg/mL. Reagents were prepared according to the manufacturer's instructions that accompanied the kit. The ELISA plate for this purpose was read at an absorbance of 415 nm within 10 minutes at room temperature (23 ± 1°C) using the Synergy HT multiwell plate reader and Gen5 data analysis software (Biotek Instruments Inc., Winooski, VT, USA). The assay was performed in quadruplet. For more information regarding the assay protocol, please refer to the instructions for the kit (COX Inhibitor Screening Assay Kit from Cayman Chemical—Cat. no. 560131).

[4] = tested on: human peripheral blood mononuclear cells; settings: cited from earlier work
[5] = computer model; cited from earlier work
COX-2 = biological target: T3, COX-2 (Homo sapiens, UniProt P35354); assay: COX inhibitor screening assay (EIA of prostaglandins), COX-2; type: biochemical
T3 construct: purchased Cayman Chemical 560131
T3 sequence (P35354 18-604): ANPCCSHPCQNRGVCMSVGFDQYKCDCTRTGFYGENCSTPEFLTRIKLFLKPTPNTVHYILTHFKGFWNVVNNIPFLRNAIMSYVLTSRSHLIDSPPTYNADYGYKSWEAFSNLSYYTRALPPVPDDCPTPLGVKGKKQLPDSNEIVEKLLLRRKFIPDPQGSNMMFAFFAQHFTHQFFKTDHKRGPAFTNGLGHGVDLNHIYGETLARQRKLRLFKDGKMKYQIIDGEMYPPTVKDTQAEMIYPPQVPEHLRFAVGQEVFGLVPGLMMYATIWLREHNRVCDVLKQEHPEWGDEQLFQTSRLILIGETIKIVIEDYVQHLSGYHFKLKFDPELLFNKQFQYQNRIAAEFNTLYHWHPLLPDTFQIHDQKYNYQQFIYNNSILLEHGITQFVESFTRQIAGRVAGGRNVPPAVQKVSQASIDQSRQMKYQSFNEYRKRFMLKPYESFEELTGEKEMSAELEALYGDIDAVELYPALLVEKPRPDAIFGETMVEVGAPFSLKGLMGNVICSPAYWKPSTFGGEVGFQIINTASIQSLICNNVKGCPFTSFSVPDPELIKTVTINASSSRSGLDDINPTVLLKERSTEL
Method: as §1

COc1cc(/C=C/c2ccc(O)c(OC)c2)cc(OC)c1 [3-methoxypterostilbene, trans-3,3′-5-trimethoxy-4′-hydro-xystilbene]
Activity in 9 KB cytotoxicity assay compared with piceatannol (9 KB): significantly greater activity | Apoptotic-inducing activity [1]: greater apoptotic-inducing activity than resveratrol | α-Amylase inhibition (in words) ([2]; 0 to 200 μg/mL, n = 6): relatively weak inhibition of α-amylase | α-Amylase activity at the highest concentrations tested (in words) ([2]; highest concentrations tested): appears to increase activity of α-amylase | α-Glucosidase inhibition (in words) [3]: does not appear to exhibit greater inhibition at higher concentrations | Activity in crown-gall plant antitumor (potato disk) assay compared with piceatannol (crown-gall): significantly greater activity | COX-1 inhibition versus NSAIDs (in words) (COX-1; 250 μg/mL, compared with ibuprofen and etodolac): significantly greater activity (P < 0.05) than the NSAIDs at low doses | COX-1 inhibitory activity (in words) (COX-1; 1, 10 and 250 μg/mL): positive concentration-dependent inhibitory activity; also recorded: strong COX-1 inhibition comparable to two NSAIDs | Inhibition of lipopolysaccharide-induced tissue factor expression [4]: as effective as resveratrol | Modeled antioxidant potency [5]: greater potency than resveratrol | COX-2 inhibition versus NSAIDs (in words) (COX-2; 10 μg/mL): statistically greater inhibition (P < 0.05) than etodolac at 1 μg/mL and ibuprofen at 250 μg/mL | COX-2 inhibitory activity (in words) (COX-2; 1, 10 and 250 μg/mL): moderate inhibition of COX-2
